Measured values: ChEMBL document CHEMBL2380242, “Discovery of novel orally bioavailable GPR40 agonists” (Bioorg Med Chem Lett, 2013)
Active and inactive are the calls of the source. The calls are words filed in the database; no cut-off is given here.

What was measured:
[1] = molecular target: T1, Free fatty acid receptor 1 (Homo sapiens, UniProt O14842); assay: Agonist activity at human GPR40 transfected in CHO cells by calcium flux assay; assay type: functional, cell-based
[2] = molecular target: T1, Free fatty acid receptor 1; assay: Agonist activity at human GPR40 transfected in CHO cells by calcium flux assay relative to TAK-875; assay type: functional, cell-based
[3] = test system: Mus musculus; assay: Antidiabetic activity in high fat feasted ICR mouse assessed as inhibition of blood glucose excursion at 50 mg/kg, po administered 15 mins prior to dextrose challenge measured for 120 mins by OGTT relative to control; assay type: functional
[4] = test system: Rattus norvegicus; assay: Volume of distribution in rat at 5 mg/kg, po; assay type: ADME, organism-based; set-up: dose 5 mg/kg, route oral; settings: in vivo
[5] = molecular target: Free fatty acid receptor 1 (Rattus norvegicus) (UniProt Q8K3T4); assay: Agonist activity at GPR40 in rat INS-1 cells assessed as glucose-stimulated insulin secretion relative to TAK-875; assay type: cell-based; settings: INS1
Sequence of Free fatty acid receptor 1 (Rattus norvegicus) (Q8K3T4 whole entry): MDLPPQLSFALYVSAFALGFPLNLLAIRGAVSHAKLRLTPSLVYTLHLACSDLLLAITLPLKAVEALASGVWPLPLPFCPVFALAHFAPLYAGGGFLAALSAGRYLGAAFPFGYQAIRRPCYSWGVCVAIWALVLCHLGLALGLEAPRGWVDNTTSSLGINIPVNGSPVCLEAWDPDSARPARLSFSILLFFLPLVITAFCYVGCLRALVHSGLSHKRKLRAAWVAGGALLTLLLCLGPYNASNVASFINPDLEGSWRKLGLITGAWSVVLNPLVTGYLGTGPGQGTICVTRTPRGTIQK

[6] = Plasma clearance in rat at 5 mg/kg, po; assay type: ADME, organism-based; set-up: dose 5 mg/kg, route oral
[7] = Cmax in rat at 5 mg/kg, po; assay type: ADME, organism-based; set-up: dose 5 mg/kg, route oral; settings: in vivo
[8] = AUC in rat at 5 mg/kg, po; assay type: ADME, organism-based; set-up: dose 5 mg/kg, route oral; settings: plasma
[9] = Half life in rat at 5 mg/kg, po; assay type: ADME, organism-based; set-up: dose 5 mg/kg, route oral; settings: in vivo
[10] = test system: Mus musculus; assay: Antidiabetic activity in high fat feasted ICR mouse assessed as reduction of blood glucose excursion at 50 mg/kg, po administered 15 mins prior to dextrose challenge measured for 120 mins by OGTT; assay type: functional, organism-based; set-up: dose 50 mg/kg

T1 sequence (O14842 whole entry): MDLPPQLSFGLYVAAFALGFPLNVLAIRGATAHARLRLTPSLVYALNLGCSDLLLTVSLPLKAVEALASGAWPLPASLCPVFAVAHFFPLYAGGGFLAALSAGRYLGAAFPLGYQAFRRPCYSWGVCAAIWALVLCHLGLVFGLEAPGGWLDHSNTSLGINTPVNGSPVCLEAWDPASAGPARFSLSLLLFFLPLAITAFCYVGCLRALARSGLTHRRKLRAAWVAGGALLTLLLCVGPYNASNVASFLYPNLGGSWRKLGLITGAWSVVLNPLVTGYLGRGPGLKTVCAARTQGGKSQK

| SMILES | EC50 [1] | Emax [2] | further results |
| --- | --- | --- | --- |
| Cc1cc(OCCCS(C)(=O)=O)c(F)c(C)c1-c1cccc([C@@H]2COc3cc4c(cc3O2)OC[C@H]4CC(=O)O)c1 | 82.4 nM | 83% |  |
| O=C(O)C[C@@H]1COc2cc3c(cc21)OC[C@H](c1cccc(Cl)c1)O3 | 220 nM | 72% |  |
| O=C(O)C[C@@H]1COc2cc3c(cc21)OC[C@@H](c1ccc(Cl)c(Cl)c1)O3 | 16 nM | 129% | inhibition in vivo at 50 mg/kg [3]: 4.9%; Vd [4]: 0.25 L/kg; Emax [5]: 46.8%; CL/F [6]: 0.167 mL/min/kg; Cmax [7]: 18900 ng/mL; AUC [8]: 337 µg·h/mL; half-life [9]: 13.3 h |
| O=C(O)C[C@@H]1COc2cc3c(cc21)OCC(c1cccc(C2CC2)c1)O3 (stereo partly specified) | 36.4 nM | 66% |  |
| O=C(O)C[C@@H]1COc2cc3c(cc21)OCC(c1ccc(Br)cc1)O3 (stereo partly specified) | > 10000 nM | 38% |  |
| CS(=O)(=O)CCCOc1ccc(-c2cc(F)cc(C3COc4cc5c(cc4O3)OC[C@H]5CC(=O)O)c2)c(Cl)c1 (stereo partly specified) | 205 nM | 69% |  |
| CS(=O)(=O)CCCOc1ccc(-c2cc(C3COc4cc5c(cc4O3)OC[C@H]5CC(=O)O)ccc2F)c(Cl)c1 (stereo partly specified) | 125 nM | 66% |  |
| O=C(O)C[C@@H]1COc2cc3c(cc21)OCC(c1cc(F)cc(C(F)(F)F)c1)O3 (stereo partly specified) | 63.7 nM | 79% |  |
| O=C(O)C[C@@H]1COc2cc3c(cc21)OCC(c1cc(F)cc(Br)c1)O3 (stereo partly specified) | 105 nM | 38% |  |
| CS(=O)(=O)CCCOc1ccc(-c2ccc(F)c(C3COc4cc5c(cc4O3)OC[C@H]5CC(=O)O)c2)c(Cl)c1 (stereo partly specified) | 56.2 nM | 102% |  |
| Cc1cc(OCCCS(C)(=O)=O)c(F)c(C)c1-c1cccc([C@H]2COc3cc4c(cc3O2)OC[C@H]4CC(=O)O)c1 | 121 nM | 77% |  |
| CS(=O)(=O)CCCOc1ccc(-c2cccc([C@H]3COc4cc5c(cc4O3)OC[C@H]5CC(=O)O)c2)c(Cl)c1 | 145 nM | 71% |  |
| O=C(O)C[C@@H]1COc2cc3c(cc21)OC[C@H](c1ccc(Cl)c(Cl)c1)O3 | 191 nM | 61% |  |
| CS(=O)(=O)CCCOc1ccc(-c2cccc([C@@H]3COc4cc5c(cc4O3)OC[C@H]5CC(=O)O)c2)c(Cl)c1 | 94.8 nM | 89% |  |
| Cc1cc(OCCCS(C)(=O)=O)ccc1-c1cccc(C2COc3cc4c(cc3O2)OC[C@H]4CC(=O)O)c1 (stereo partly specified) | 123 nM | 53% |  |
| Cc1cc(OCCCS(C)(=O)=O)cc(C)c1-c1ccc(F)c([C@@H]2COc3cc4c(cc3O2)OC[C@H]4CC(=O)O)c1 | 46.5 nM | 87% | Activity [10]: inactive |
| O=C(O)C[C@@H]1COc2cc3c(cc21)OC[C@H](c1cccc(C(F)(F)F)c1)O3 | 30.4 nM | 55.6% |  |
| Cc1cc(OCCCS(C)(=O)=O)cc(C)c1-c1ccc(F)c([C@H]2COc3cc4c(cc3O2)OC[C@H]4CC(=O)O)c1 | 67.5 nM | 83% | Activity [10]: Active |

The next lines start with results.

| EC50 [1] | Emax [2] | SMILES | further results |
| --- | --- | --- | --- |
| 74.5 nM | 104% | O=C(O)C[C@@H]1COc2cc3c(cc21)OCC(c1cccc(-c2ccccc2C(F)(F)F)c1)O3 (stereo partly specified) |  |
| 54.7 nM | 89% | O=C(O)C[C@@H]1COc2cc3c(cc21)OCC(c1cccc(Br)c1)O3 (stereo partly specified) |  |
| 56.7 nM | 97% | O=C(O)C[C@@H]1COc2cc3c(cc21)OC[C@H](c1cccc(-c2ccccc2Cl)c1)O3 (mixture of isomers) |  |
| 52.9 nM | 85% | Cc1cccc(C)c1-c1cccc([C@@H]2COc3cc4c(cc3O2)OC[C@H]4CC(=O)O)c1 |  |
| 30.1 nM | 72% | Cc1cccc(C)c1-c1cccc([C@H]2COc3cc4c(cc3O2)OC[C@H]4CC(=O)O)c1 |  |
| 88 nM | 89% | Cc1ccc(C)c(-c2cccc(C3COc4cc5c(cc4O3)OC[C@H]5CC(=O)O)c2)c1 (stereo partly specified) |  |
| 38.7 nM | 90% | Cc1ccc(-c2cccc(C3COc4cc5c(cc4O3)OC[C@H]5CC(=O)O)c2)c(C)c1 (stereo partly specified) |  |
| 132 nM | 68% | Cc1cc(C)cc(-c2cccc(C3COc4cc5c(cc4O3)OC[C@H]5CC(=O)O)c2)c1 (stereo partly specified) |  |
| 111 nM | 105% | O=C(O)C[C@@H]1COc2cc3c(cc21)OC[C@H](c1cccc(Br)c1)O3 |  |
| 55.9 nM | 124% | Cc1cc(OCCCS(C)(=O)=O)cc(C)c1-c1cccc([C@@H]2COc3cc4c(cc3O2)OC[C@H]4CC(=O)O)c1 |  |
| 39.3 nM | 76% | Cc1ccccc1-c1cccc([C@@H]2COc3cc4c(cc3O2)OC[C@H]4CC(=O)O)c1 |  |
| 282 nM | 111% | Cc1cc(OCCCS(C)(=O)=O)cc(C)c1-c1cccc([C@H]2COc3cc4c(cc3O2)OC[C@H]4CC(=O)O)c1 |  |
| 66.7 nM | 99% | O=C(O)C[C@@H]1COc2cc3c(cc21)OC[C@@H](c1cccc(-c2ccccc2Cl)c1)O3 |  |
| 74.7 nM | 103% | O=C(O)C[C@@H]1COc2cc3c(cc21)OCC(c1cccc(-c2ccc(F)cc2Cl)c1)O3 (stereo partly specified) |  |
| 61.6 nM | 103% | Cc1cc(C)c(-c2cccc(C3COc4cc5c(cc4O3)OC[C@H]5CC(=O)O)c2)c(C)c1 (stereo partly specified) |  |
| 35.9 nM | 77% | Cc1cc(F)ccc1-c1cccc(C2COc3cc4c(cc3O2)OC[C@H]4CC(=O)O)c1 (stereo partly specified) |  |
| 73.2 nM | 115% | O=C(O)C[C@@H]1COc2cc3c(cc21)OCC(c1cccc(-c2ccccc2F)c1)O3 (stereo partly specified) |  |
| 65.4 nM | 105% | O=C(O)C[C@@H]1COc2cc3c(cc21)OCC(c1cccc(-c2ccccc2)c1)O3 (stereo partly specified) |  |
